Data on six molecules can be found in US20250282711A1, “CRYSTALLINE FORM OF ELACESTRANT AND PREPARATION METHOD AND USE THEREOF” (CRYSTAL PHARMACEUTICAL (SUZHOU) CO., LTD., priority 2022, published 2025).

Structures are written as SMILES. In brackets after ≈: the same amount, converted by molar mass.

Usually Solubility stands for the dissolved amount per volume that the medium holds. A lower Solubility goes with little dissolved substance.

Data set [1] in a line: Kinetic solubility in FeSSIF. Type of data set: physicochemical. Conditions: 37° C., 30 min, 10 mg in 1 mL. Here is the method:
When solubility test is used to predict the in vivo performance of a drug, it is critical to simulate in vivo conditions as closely as possible. For oral medication, Fed-State Simulated Intestinal Fluid (FeSSIF) can be used to simulate the condition in vivo and predict the effects of feeding, thus solubility in such mediums is closer to that in vivo.
10 mg of Form CSII and 10 mg of prior art Form 1B were suspended into 1 mL of FeSSIF to get suspensions. After equilibrated at 37° C. for 30 min, the suspensions were filtrated to get saturated solutions. The concentrations (mg/mL) of Compound I of the saturated solutions were measured by HPLC.

A short description of data set [2]: Particle size distribution (laser particle size analyzer, wet mode). Type of data set: physicochemical. Here is the method:
The particle size distribution data in the present disclosure were acquired by an Mastersizer 3000 laser particle size analyzer of Malvern. The test was carried out in wet mode, using a Hydro MV dispersion device, and the dispersant was Isopar G. The parameters are as follows:
An appropriate amount of Form CSII of the present disclosure and prior art Form 1B was tested particle size distribution. The average particle diameter calculated by volume, the diameter at which 10% mass is comprised of smaller particles (D10), the diameter at which 50% mass is comprised of smaller particles (D50) and the diameter at which 90% mass is comprised of smaller particles (D90) were obtained in particle size distribution test.

A short description of the next data set: Morphology by microscopy. Type of data set: physicochemical. Conditions: magnification of 200 times. An excerpt:
An appropriate amount of Form CSII of the present disclosure was placed on a glass slide and dispersed with vacuum pump oil. It was covered with a cover glass slide and shoot at a magnification of 200 times.

Data set [3] is described as follows: Flowability (compressibility index, USP <1174>). In kind it is physicochemical. Conditions: for Compressibility index: c=(pf−p0)/pf; for Flowability: criteria of USP <1174> Powder Flow. Here is the method:
Compressibility index is usually utilized to evaluate the flowability of powder or granules during the drug product process. Compressibility index test method is as follows: a certain amount of powder was added into a measuring cylinder and bulk volume was recorded. Then the powder was tapped to make it in the tightest state and the tapped volume was recorded. The bulk density (p0), tapped density (pf) were calculated and compressibility index was calculated according to c=(pf−p0)/pf. According to the criteria of flowability in USP General Charpters: <1174> Powder Flow, the flowability results are shown in Table 10.

Data set [4] can be described thus: Compressibility (tablet hardness / tensile strength). Type of data set: physicochemical. To be noted: 60 mg, φ6 mm round tooling, 5 KN; for Hardness: 24 h recovery. Here is the method: An ENERPAC manual tablet press was used for compression. 60 mg of Form CSII and prior art Form 1B were weighed and added into the dies of a φ6 mm round tooling, compressed at 5 KN manually, then stored at room temperature for 24 h until elastic recovery is complete, hardness (H) was tested with an intelligent tablet hardness tester. Diameter (D) and thickness (L) were tested with a caliper. Tensile strength of the powder was calculated with the following formula: T=2H/TTDL. Under a certain force, the greater the tensile strength, the better the compressibility.

Data set [5] can be described thus: Adhesiveness (material sticking to the punch). Type of data set: physicochemical. Conditions: 30 mg, Φ8 mm round tooling, 10 KN, held 30 s. Here is the method: 30 mg of Form CSII and 30 mg of prior art Form 1B were weighed and then added into the dies of Φ8 mm round tooling, compressed at 10 KN by ENERPAC manual tablet press and held for 30 s. The punch was weighed and amount of material sticking to the punch was calculated. The compression was repeated twice and the average amount of material sticking to the punch during the compression were calculated.

The nature of data set [6]: Storage stability of Form CSII drug substance (XRPD, HPLC). In kind it is physicochemical. Here is the method:
An appropriate amount of Form CSII of the present disclosure were stored under different sealed conditions of 25° C./60% RH and 40° C./75% RH with desiccant and antioxidant. Chemical purity and crystalline form were checked by HPLC and XRPD, respectively. […] Form CSII has good stability under both long-term and accelerated conditions.

Data set [7] is described as follows: Stability upon mechanical force (tableting pressure, grinding). In kind it is physicochemical.
Data set [8] in a line: Crystal form stability in formulation process. In kind it is physicochemical. Conditions: formulation of Table 15, process of Table 16. From the text:
Form CSII of the present disclosure was made into capsules using the formulation in Table 15 and the preparation process in Table 16. The XRPD patterns were collected before and after the formulation process.

The conditions of data set [9]: cited from earlier work; for Humidity stability / form conversion: as disclosed in WO2020010216A1 (FIG. 1, Table 17).
The conditions of data set [10]: low solubility and low permeability; cited from earlier work.
Where [11] appears, read: 25° C./60% RH, sealed with desiccant and antioxidant, 6 months.
Where [12] appears, read: 40° C./75% RH, sealed with desiccant and antioxidant, 6 months.

Take `CCNCCc1ccc(CN(CC)c2cc(OC)ccc2[C@@H]2CCc3cc(O)ccc3C2)cc1` [Form CSII, (R)-6-{2-{ethyl [4-(2-ethylaminoethyl)benzyl]amino}-4-methoxyphenyl}-5,6,7,8-tetrahydronaphthalen-2-ol]: the Solubility in data set [1] is 2590 µg/mL (≈ 5.65 mM). Also, in data set [2], the D10 is 2.11 μm, the D50 came to 14.9 μm, the D90 was found to be 28.3 μm and the “MV (average particle diameter calculated by volume)” value is on record as 15.8 μm. In “Morphology by microscopy”, the “Agglomeration (morphology)” value is on record as “no agglomeration” and the Maximum particle size is listed as 30-40 μm. Also, in data set [3], the Bulk density was 0.237 g/mL, the Tapped density is on record as 0.266 g/mL, the Compressibility index is given as 11 and the Flowability result is listed as “Good”. In [4], the Tensile strength came to 0.97 MPa and the Hardness turned out to be 18.4 kgf. In addition, the “Average amount of material sticking to the punch” value in data set [5] came out at 0.21 mg. Further, in data set [6] (25° C./60% RH), the “Time kept stable (crystalline state unchanged)” value is “at least 6 months”. Also, in [6] (setting [11]), the “Form (XRPD)” value is “Form CSII” and the Purity came to 99.60%. For the same molecule, the “Time kept stable (crystalline state unchanged)” value in [6] (40° C./75% RH) was “at least 6 months”. Further, in data set [6] (setting [12]), the “Form (XRPD)” value is listed as “Form CSII” and the Purity stood at 99.58%. Besides, in data set [6] (Initial), the “Form (XRPD)” value is listed as “Form CSII” and the Purity is reported as 99.59%. Also, the “Solid form after tableting” value in data set [7] (Pressure 5 kN) is “Form CSII”. Also, the “Solid form after tableting” value in data set [7] (Pressure 10 kN) was “Form CSII”. In data set [7] (Pressure 15 kN), the “Solid form after tableting” value is “Form CSII”. For the same molecule, in data set [7] (grinding (ball milling, FIG. 5)), the “Crystalline form after grinding” value is listed as “doesn't change”. For the same molecule, the “Crystalline form before and after formulation process” value in data set [8] is reported as “remains stable”.

As to `CCNCCc1ccc(CN(CC)c2cc(OC)ccc2[C@@H]2CCc3cc(O)ccc3C2)cc1` [Form 3], the “Humidity stability / form conversion” value in data set [9] is on record as “transitions to Form 2 when humidity is above 40% RH”.

Consider `CCNCCc1ccc(CN(CC)c2cc(OC)ccc2[C@@H]2CCc3cc(O)ccc3C2)cc1` [Form 2], for which the “Humidity stability / form conversion” value in data set [9] was “transitions to Form 3 when humidity is below 40% RH”.

In the case of `CCNCCc1ccc(CN(CC)c2cc(OC)ccc2[C@@H]2CCc3cc(O)ccc3C2)cc1` [Elacestrant, (R)-6-{2-{ethyl [4-(2-ethylaminoethyl)benzyl]amino}-4-methoxyphenyl}-5,6,7,8-tetrahydronaphthalen-2-ol], the BCS class entry in data set [10] was “BCS class IV”.

Regarding `CCNCCc1ccc(CN(CC)c2cc(OC)ccc2[C@@H]2CCc3cc(O)ccc3C2)cc1` [Prior art Form 1B, reference compound], the Solubility in [1] came to 1170 µg/mL (≈ 2.55 mM). In data set [2], the D10 was 1.64 μm, the D50 is 286 μm, the D90 was found to be 839 μm and the “MV (average particle diameter calculated by volume)” value is on record as 350 μm. Moreover, in data set [3], the Bulk density turned out to be 0.198 g/mL, the Tapped density is on record as 0.248 g/mL, the Compressibility index came to 20 and the Flowability result is on record as “Fair”. In [4], the Tensile strength is given as 0.44 MPa and the Hardness is 9.3 kgf. The “Average amount of material sticking to the punch” value in data set [5] came to 0.59 mg. Besides, in data set [9] (Table 17 of WO2020010216A1), the Particle morphology result is “very small flaky particle mainly composed of aggregates”. Moreover, the “Humidity stability / form conversion” value in data set [9] was “can maintain stability at humidity above 90% RH”.

Take `CCNCCc1ccc(CN(CC)c2cc(OC)ccc2[C@@H]2CCc3cc(O)ccc3C2)cc1` [Form 1]: the “Humidity stability / form conversion” value in [9] was “transitions to Form 3 under high humidity conditions”.
